The source of these data is paper PMC6754406, “Ran pathway-independent regulation of mitotic Golgi disassembly by Importin-α” (Nature Communications, 2019).

Assay [1] has as its target T1, Importin-β (Homo sapiens, UniProt Q14974).
T1 construct: GST (N, cleaved yes); made in house; host or cells: Escherichia coli Rosetta
Kind of assay: Isothermal titration calorimetry (ITC), Importin-β. The class given is binding. Particulars: for ITC profile (exothermic / endothermic): 25 °C. An excerpt:
Homo sapiens GM130 (a.a. 1–48), GM130 (a.a. 1–85), and Importin-β were amplified by PCR and ligated into pGEX-6P-1 (GE Healthcare). H. sapiens full-length Importin-α and Mus musculus Importin-α were amplified by PCR and ligated into modified pGEX-6P-1 (GE Healthcare) that produces proteins with 6-His at the C–terminus. Mouse Importin-α shares ~95% identity with human Importin-α over the full protein sequence, so we used the former for biochemical and structural studies. GM130-S25D (a.a. 1–48), GM130-S25D (a.a. 1–85), GM130-S25D/K14A (a.a. 1–85), and GM130-S25D/K34A (a.a. 1–85) mutants were created by PCR-based mutagenesis and were verified by sequencing. A list of primer sequences used in this study is shown in Supplementary Table 1.
Binding affinities of different GM130 proteins to Importin-α and Importin-β were measured by ITC (MicroCal iTC200). All proteins were dialyzed against ITC buffer (20 mM HEPES pH 7.4, 1 mM DTT) with either 50 or 200 mM NaCl. Protein concentrations were determined spectrophotometrically with respective extinction coefficients. ITC was performed at 25 °C. The respective heat changes were fitted using a one-sites binding model.
On the technique in general: ITC needs no label: the signal is the heat of the interaction.

In assay [2] the target is T1, Importin-β. Kind of assay: Size exclusion chromatography co-migration with Importin-β. Particulars: Superdex 200, 20 mM HEPES pH 7.4, 50 mM NaCl, 3 mM DTT, 1:1. It counts as binding. As to the method:
Fig. 4 Ran and a phosphate moiety repress GM130 and Importin-β interaction. a SEC (Superdex 200) elution profiles for the Importin-β•GST-GM130-WT complex (black line), Importin-β (gray line), and GST-GM130-WT (light gray line). The void volume (Vo) is indicated. b–d The peak fractions of the Importin-β•GST-GM130-WT complex (b), Importin-β (c), and GST-GM130-WT (d) were analyzed by SDS–PAGE and stained with Coomassie blue. e, f ITC titration curves (upper) and binding isotherms (lower) of Importin-β with GM130-NLS WT (e) and GM130-NLS phospho-S25 (f). Kd values are indicated. g Competition binding assay. GST-GM130-S25D and Importin-β were incubated with indicated concentrations of GFP-IBB. Samples pulled down by GST beads were analyzed by SDS–PAGE and stained with Coomassie blue. […] GST-bound samples were analyzed by SDS–PAGE and stained with Coomassie blue. i, k Band intensities of Importin-α or Importin-β from the SDS–PAGE gels in h, j were used to determine averages of bound protein. […]
GST-GM130-WT and GST-GM130-S25D were, respectively, incubated with Importin-β or Importin-α FL in a molar ratio of 1:1. […] Peak fractions were analyzed by SDS–PAGE.
On the technique in general: SEC sorts molecules by how far they enter the pores of the column.

For assay [3], the system named is Importin-α associated with GM130. Nature of the assay: Immuno-precipitation of Importin-α with GM130 antibody, RO-3306-treated nocodazole-arrested HEK293T cells. The class given is cell-based. Particulars: RO-3306-treated vs untreated, 10 µM/ml, 2 h; three independent experiments. How it is done: (§1) To pull down endogenous GM130, HEK293T cells were synchronized via nocodazole treatment and lysed in a buffer containing 50 mM Tris–HCl (pH 7.4), 150 mM NaCl, 1 mM EDTA, 10% glycerol, 1% Triton, 0.15% SDS, protease inhibitor cocktail (Roche), and 1 mM PMSF. Clarified lysates were pre-incubated with GM130 antibody (Abcam ab52649) for 12 h at 4 °C, followed by one hour incubation with IgG sepharose^TM 6 Fast Flow (GE Healthcare). Beads were then washed three times with buffer (20 mM HEPES pH 7.4, 150 mM NaCl, 1.5 mM MgCl2, 10% glycerol, 0.1% Triton). Protein samples were boiled in SDS sample buffer and analyzed by SDS–PAGE, followed by Western blotting analysis.
(§2) To prepare Cdk1 inhibitor treated lysates for GM130 pull-down assays, WT HEK293T cells were synchronized by 30 µM of nocodazole for 13 h, followed by treatment of Cdk1 inhibitor RO-3306 (10 µM/ml) (Sigma, cat#SML0569) for 2 h.
(§3) Sup ple me ntary Figu re 5. Cell-base d e xam ination of the K34A mutation of G M130. a, Representative fluorescent images of w ild-type and two K34A mutant cell lines at metaphase.
(§4) Sca le b a r : 1 0 µm. b, Images of nocodaz o le-ar r e st ed H EK 2 9 3 T ce ll s without (left) and w ith (right) RO-3306 treatment acquired by bright-field illum ination. Sc ale ba r: […]

Another assay has as its system Cdk1. The conditions noted are these: 1-h RO-3306 treatment; ref [23]; cited from earlier work.
In assay [4] the test system is p115 associated with GM130. Kind of assay: Immuno-precipitation of p115 with GM130 antibody, RO-3306-treated nocodazole-arrested HEK293T cells. The class given is cell-based. The conditions noted are these: RO-3306-treated vs untreated, 10 µM/ml, 2 h; three independent experiments. How it is done:
as §1, §2, §3, §4

In assay [5] the target is T2, Importin-α(ΔIBB) (a.a. 70–524) (Mus musculus, UniProt P52293).
T2 construct: Importin-α lacking the IBB domain (a.a. 70–524; hereafter Importin-α(ΔIBB)); GST (N); made in house; host or cells: Escherichia coli Rosetta
Kind of assay: Isothermal titration calorimetry (ITC), Importin-α(ΔIBB). The conditions noted are these: 200 mM NaCl. It counts as binding. An excerpt:
Phosphorylation of GM130 on Ser-25 is correlated with p115 dissociation, with this process appearing to be specific to mitosis and being responsible for reduction of p115-mediated vesicle fusion to Golgi membranes[5]–[7],[9],[10]. The N-terminal region of GM130 and the p115 C-terminus interact[11],[12], so we purified recombinant proteins containing these two regions and then assessed their binding affinity by isothermal titration calorimetry (ITC). The wild type GM130 N-terminal region (a.a. 1-85; hereafter GM130-WT) directly bound p115 (a.a. 780–930; hereafter p115-CTD) (Fig. 1a). Furthermore, we examined if GM130 phosphorylation reduces the binding affinity for p115. […] We found in competition-binding assays that p115-CTD pulldown by GST-GM130-S25D was reduced when we added increasing amounts of Importin-α lacking the IBB domain (a.a. 70–524; hereafter Importin-α(ΔIBB)) (Fig. 1c). […] Therefore, we propose that binding of Importin-α to GM130 could be primarily responsbile for preventing interaction between p115 and GM130 during mitosis.
Homo sapiens GM130 (a.a. 1–48), GM130 (a.a. 1–85), and Importin-β were amplified by PCR and ligated into pGEX-6P-1 (GE Healthcare). […]
Binding affinities of different GM130 proteins to Importin-α and Importin-β were measured by ITC (MicroCal iTC200). […] Protein concentrations were determined spectrophotometrically with respective extinction coefficients. […]

Where a SMILES comes first, the peptide text is derived from it. Where no end group is shown, it is not given here. [ ]: non-standard residue; d: D form. pS = N[C@@H](COP(=O)(O)O)C(=O)O

T1 sequence (Q14974 whole entry): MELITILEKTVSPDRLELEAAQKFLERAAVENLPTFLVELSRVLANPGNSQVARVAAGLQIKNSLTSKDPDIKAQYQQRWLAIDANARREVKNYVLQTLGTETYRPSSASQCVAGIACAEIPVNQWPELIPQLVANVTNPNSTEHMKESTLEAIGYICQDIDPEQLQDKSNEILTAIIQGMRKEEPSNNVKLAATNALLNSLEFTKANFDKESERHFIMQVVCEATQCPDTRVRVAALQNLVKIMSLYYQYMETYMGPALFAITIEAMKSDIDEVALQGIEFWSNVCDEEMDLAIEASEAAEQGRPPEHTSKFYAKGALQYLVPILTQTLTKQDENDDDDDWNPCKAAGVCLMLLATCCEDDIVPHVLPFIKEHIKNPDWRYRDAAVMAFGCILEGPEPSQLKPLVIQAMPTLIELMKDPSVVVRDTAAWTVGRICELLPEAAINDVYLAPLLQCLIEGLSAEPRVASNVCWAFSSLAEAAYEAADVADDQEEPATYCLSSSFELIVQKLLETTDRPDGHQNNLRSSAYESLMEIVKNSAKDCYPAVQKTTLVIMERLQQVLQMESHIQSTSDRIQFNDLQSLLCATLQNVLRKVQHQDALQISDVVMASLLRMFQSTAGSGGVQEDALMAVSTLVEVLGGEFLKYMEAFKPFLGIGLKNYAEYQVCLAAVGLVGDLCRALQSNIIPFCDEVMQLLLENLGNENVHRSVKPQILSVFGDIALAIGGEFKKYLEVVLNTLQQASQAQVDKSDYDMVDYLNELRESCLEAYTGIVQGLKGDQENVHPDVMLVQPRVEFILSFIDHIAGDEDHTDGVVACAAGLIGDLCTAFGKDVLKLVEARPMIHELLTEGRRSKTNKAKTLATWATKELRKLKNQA

Take “AKKKLREYQQRNSPGVPTGAKKKKKIK [GM130-NLS WT]”: on Importin-β [1], the “ITC profile (exothermic / endothermic)” value is reported as “exothermic profile”. In addition, the “co-migration with Importin-β by SEC” value on Importin-β [2] is listed as “co-migration”.

On to `O=C1NC(=NCc2cccs2)S/C1=C\c1ccc2ncccc2c1` [RO-3306], for which, in assay [3], the “Importin-α pulldown by GM130” value was “reduced”. Moreover, in the assay with Cdk1, the “block of Cdk1 activity” value is “sufficient to block Cdk1 activity” and the morphological transition result was “morphological transition from rounded mitotic cells to a flat interphase shape”. Besides, the “p115 pulldown by GM130” value in assay [4] was “enhanced”.

As to `CC[C@H](C)[C@H](NC(=O)[C@H](CCCCN)NC(=O)[C@H](CCCCN)NC(=O)[C@H](CCCCN)NC(=O)[C@H](CCCCN)NC(=O)[C@H](CCCCN)NC(=O)[C@H](C)NC(=O)CNC(=O)[C@@H](NC(=O)[C@@H]1CCCN1C(=O)[C@@H](NC(=O)CNC(=O)[C@@H]1CCCN1C(=O)[C@H](COP(=O)(O)O)NC(=O)[C@H](CC(N)=O)NC(=O)[C@H](CCCNC(=N)N)NC(=O)[C@H](CCC(N)=O)NC(=O)[C@H](CCC(N)=O)NC(=O)[C@H](Cc1ccc(O)cc1)NC(=O)[C@H](CCC(=O)O)NC(=O)[C@H](CCCNC(=N)N)NC(=O)[C@H](CC(C)C)NC(=O)[C@H](CCCCN)NC(=O)[C@H](CCCCN)NC(=O)[C@H](CCCCN)NC(=O)[C@H](C)N)C(C)C)[C@@H](C)O)C(=O)N[C@@H](CCCCN)C(=O)N[C@@H](CC(N)=O)C(=O)O` [GM130-NLS phospho-S25] (H-AKKKLREYQQRN[pS]PGVPTGAKKKKKIKN-OH; N-terminus and C-terminus assumed), in assay [5], the “binding affinity for Importin-α(ΔIBB) vs wild type” value was “better binding affinities”. The “ITC profile (exothermic / endothermic)” value on Importin-β [1] is on record as “endothermic curve”. The “binding constant relative to wild-type GM130 peptide” value at Importin-β [1] (relative to wild-type GM130 peptide) is “at least three orders of magnitude lower”.
